The data set in a line: in vitro. The following applies: human, hela cells, % viability.

SMILES strings stand for the structures.

On to `Cc1ccc(C(C)C)c(OCCSc2nc3c(N)ncnc3[nH]2)c1` [CBK266941], for which the viability at 28.5 h, 10 µM turned out to be 94.3%.

On to `COC(=O)c1c(NC(=S)Nn2cnnc2)sc2c1CCC(C)C2` (centres unmarked) [CBK266942], for which the viability at 28.5 h, 10 µM was 91.6%.

Consider `COC(=O)c1c(NC(=S)NCc2cccs2)sc(C)c1-c1ccccc1` [CBK266943], for which the viability at 28.5 h, 10 µM was found to be 97%.

`CCOc1ccc(NC(=O)Nc2ccc(CC(=O)O)cc2)cc1` [CBK266945]: the viability at 28.5 h, 10 µM worked out at 112%.

In the case of `CN(CC(=O)N1CCOCC1)S(=O)(=O)c1ccc2ccccc2c1` [CBK266946], the viability at 28.5 h, 10 µM worked out at 98.5%.

In the case of `COCCCNC(=S)Nc1ccc(N2CCOCC2)c2nonc12` [CBK266947], the viability at 28.5 h, 10 µM worked out at 88.8%.

With `Oc1ccc(-c2n[nH]cc2-c2cnn(-c3ccccc3)c2)c(O)c1O` [CBK266948], the viability at 28.5 h, 10 µM was 104%.

As for `CN1CCN(c2nc(NCCNc3ccc([N+](=O)[O-])cc3)c3ccccc3n2)CC1` [CBK266949], the viability at 28.5 h, 10 µM was 77.5%.

In the case of `CCn1cc(C(C)NC(=S)Nc2ccc(OC)cc2OC)c(C)n1` (centres unmarked) [CBK266950], the viability at 28.5 h, 10 µM worked out at 90%.

`CCOC(=O)c1c(NC(=S)NCc2ccccn2)sc2c1CCCCC2` [CBK266954]: the viability at 28.5 h, 10 µM is 106%.

Regarding `O=C(O)CC(NCc1ccccc1)C(=O)Nc1cccc(F)c1` (centres unmarked) [CBK266956], the viability at 28.5 h, 10 µM was 92.3%.

Consider `Cc1cnn(CCCNC(=S)Nc2ccc(S(N)(=O)=O)cc2)c1` [CBK266957], for which the viability at 28.5 h, 10 µM worked out at 90.7%.

For `COc1ccc(Cl)cc1NC(=O)Nc1ccc(C(=O)N2CCOCC2)cc1` [CBK266958], the viability at 28.5 h, 10 µM was determined as 87.1%.

For the molecule `CN(C)CCNC(=O)C(=O)Nc1ccc(Cl)cc1` [CBK266965], the viability at 28.5 h, 10 µM came out at 107%.

Consider `CCC(C)c1ccc(NC(S)=NCc2ccccn2)cc1` (centres unmarked) [CBK266966], for which the viability at 28.5 h, 10 µM came to 89.2%.

With `Cc1cccc(C)c1OCC(=O)Nc1ccc(S(=O)(=O)N2CCOCC2)cc1` [CBK266967], the viability at 28.5 h, 10 µM was 94.1%.

`Cc1ccccc1NC(=O)CC(C(=O)O)N1CCOCC1` (centres unmarked) [CBK266969]: the viability at 28.5 h, 10 µM amounted to 113%.

Turning to `O=C(O)C1CCCN1S(=O)(=O)c1ccc2[nH]c(=O)c(=O)[nH]c2c1` (centres unmarked) [CBK266971], the viability at 28.5 h, 10 µM turned out to be 88.9%.

With `NS(=O)(=O)c1ccc(NC(=S)NNC(=O)c2ccc(Br)o2)cc1` [CBK266972], the viability at 28.5 h, 10 µM was 95.8%.

`CC(C)(C)NS(=O)(=O)c1ccc(CCC(=O)Nc2ccc(F)c(Cl)c2)cc1` [CBK266974]: the viability at 28.5 h, 10 µM came out at 89.9%.

Consider `COc1ccc(CNC(=S)Nc2cccc(C(F)(F)F)c2)cc1OC` [CBK266977], for which the viability at 28.5 h, 10 µM was 101%.

On to `CCNS(=O)(=O)c1ccc(NC(=S)Nc2ccc(S(N)(=O)=O)cc2)cc1` [CBK266978], for which the viability at 28.5 h, 10 µM stood at 99.5%.

Turning to `c1ccc2c(c1)nc(-c1cscn1)n2Cc1ccc(-c2nnn[nH]2)cc1` [CBK266979], the viability at 28.5 h, 10 µM is 96.6%.

Consider `O=C(O)CNS(=O)(=O)c1ccc(Cl)c(Cl)c1` [CBK266981], for which the viability at 28.5 h, 10 µM was found to be 86.2%.

Take `Fc1ccc(NC(=S)NNC(=S)Nc2cccc3ccccc23)c(F)c1` [CBK266982]: the viability at 28.5 h, 10 µM was 89.8%.

Take `COc1ccc(C(C)C)cc1S(=O)(=O)NCCc1c(C)[nH]c2c(Cl)cccc12` [CBK266983]: the viability at 28.5 h, 10 µM came out at 94.5%.

`CC(NS(=O)(=O)c1ccc(Cl)cc1)C(=O)Nc1ccccc1Sc1ccccc1` (centres unmarked) [CBK266984]: the viability at 28.5 h, 10 µM came out at 98.4%.

In the case of `Cc1c(C(C)NC(=O)Nc2ccc(F)cc2F)cnn1C` (centres unmarked) [CBK266986], the viability at 28.5 h, 10 µM amounted to 95.1%.

`Nn1c(CSc2ccccn2)nnc1CSc1ccccn1` [CBK266987]: the viability at 28.5 h, 10 µM was found to be 90.8%.

For `Cc1ccc(S(=O)(=O)Nc2nc3ccc(S(=O)(=O)N4CCOCC4)cc3s2)cc1` [CBK266988], the viability at 28.5 h, 10 µM was 88.8%.

Turning to `CCc1cc(C(=O)OC)c(NC(=O)CC2NCCNC2=O)s1` (centres unmarked) [CBK266990], the viability at 28.5 h, 10 µM came to 97.6%.

On to `O=[N+]([O-])c1ccc(S(=O)(=O)CC(CN2CCCC2)N2CCCC2)cc1` (centres unmarked) [CBK266991], for which the viability at 28.5 h, 10 µM was found to be 112%.

These data come from publication PMC12040169 (PLOS Biology, 2025).
